Reference: US9827250B2, “Lens incorporating myopia control optics and muscarinic agents” (Johnson & Johnson Vision Care, Inc., priority 2012, dated 2017)

Tests used:
[1] = Drug release from drug loaded lenses into PBS; assay type: physicochemical; details: 34 degrees C
Description: Five drug loaded lenses, all together, were placed into 1 mL of phosphate buffered saline (PBS) and placed in a shaking water bath at thirty-four (34) degrees C. Samples were taken at regular intervals and replaced with fresh PBS. Release samples were analyzed spectrophotometrically to determine the concentration. As well, the nature of the peaks was also examined to determine whether there were any changes relative to the control samples (freshly prepared drug in appropriate buffer solutions). Drug loading and release was controlled using different loading concentrations to determine whether the release rate of the drug could be altered by changing simply or easily controlled conditions. Various drug concentrations were examined. In the case of 1 DAM, AT in ethanol and water (1:1) at various concentrations was examined or utilized. For the ATSM release from ATE lenses, the lenses were removed from the loading solution and rinsed to remove loosely physically adsorbed drug. For the 1 DAM lenses, the lenses were dried to remove any residual ethanol and rehydrated prior to the release study.
To establish drug release concentrations, five drug loaded lenses were placed into 1 ml of phosphate buffered saline (PBS) solution and placed in a shaking water bath at 34° C. […] Samples of solution were analyzed spectrophotometrically to determine the concentration of the released drug.

progression of myopia = details: 0.5 percent drops instilled one time per day; cited from earlier work

Structure (SMILES)	release of drug from 1 DAM lenses ([1]; 1 DAM lenses, FIG. 5)	release rate from ATE lenses as compared to 1 DAM lenses ([1]; ATE lenses, FIG. 7)	efficacy in slowing the progression of myopia (progression of myopia)
CN1[C@@H]2CC[C@H]1C[C@@H](OC(=O)C(CO)c1ccccc1)C2 (stereo partly drawn) [ATSM, atropine sulphate monohydrate]	release more quickly in greater amounts	somewhat lower release rate	–
CN1[C@@H]2CC[C@H]1C[C@@H](OC(=O)C(CO)c1ccccc1)C2 (stereo partly drawn) [Atropine, atropine]	–	–	show efficacy in slowing the progression of myopia
